Article PMC6830309, “Characterizing CDK8/19 Inhibitors through a NFκB-Dependent Cell-Based Assay” (Cells, 2019)
Read-outs that look alike come from different tables or passages of the source.

Legend:
[1] = test system: TNFα-induced NFκB reporter activity in WT 293 cells (CDK8/19 inhibition); assay: NFκB-dependent luciferase reporter cell-based assay in WT 293 cells; set-up: species or system human; settings: for extent of inhibition of NFκB-dependent promoter activation: WT cells
Protocol: (§1) The lentiviral construct pHAGE-NFkB-TA-LUC-UBC-dTomato was generated by Darrell Kotton […] Parental WT 293 cells or CDK8/19 dKO 293 cells were transduced with the lentivirus and dTomato-positive cells were sorted out using FACS Aria III. Single-cell clones were expanded and tested for luciferase reporter activities under TNFα- and/or senexin B-treated and untreated conditions with Bright-Glo Luciferase Assay System (Promega, Madison, WI, USA).
(§2) On day 1, cells were seeded in polyethyleneimine-coated 96-well plates at the density of 5 × 10^4 cells per well. […] Chemiluminescence intensity of each well was measured with ChemiDoc Touch™ (Bio-Rad) and quantified using ImageLab software (Bio-Rad). The raw data were then further processed with GraphPad Prism 7.0 (GraphPad Software, San Diego, CA, USA) for curve-fitting and IC50 calculation.

[2] = test system: alkaline phosphatase (ALPase) activity in ST2 cells; set-up: method as in PMID 23453217; settings: concentration enhancing ALPase activity to 200% of the control; cited from earlier work
[3] = test system: TNFα-induced NFκB reporter activity in CDK8/19 dKO 293 cells; assay: NFκB-dependent luciferase reporter cell-based assay in CDK8/19 dKO 293 cells; set-up: species or system human; settings: for IC50: Homo sapiens, read-out: NFkB activity Assay IC50; for effect on reporter induction in dKO cells: 293-dKO-NFκB-Luc cells
Protocol: as §1, §2

CXCL1 mRNA expression = assay: QPCR of TNFα-induced CXCL1 mRNA in 293 cells and CDK8/19 knockout derivatives; assay type: cell-based, human; settings: dKO 293 cells; 1 μM senexin B
Protocol: (§3) Cells were seeded in 12-well plates at density of 3 × 10^5 cells per well in regular culture media 24 h before treatment. Cells were first pre-treated with 1 μM senexin B or solvent control DMSO (0.1%) for 1 h and then treated with or without 10 ng/mL TNF-α for 2 h. Total RNA was extracted using RNAeasy Mini Kit (Qiagen, Germantown, MD, USA) and 1 µg of total RNA was used to generate cDNA using iScript cDNA synthesis kit (Bio-Rad). Gene expression was quantified using iTaq Universal SYBR green super mix on the CFX384 Real time system (Bio-Rad). The primers used for real-time PCR were: CXCL1-F, […]; CXCL1-R, […]; IL8-F, […]; IL8-R, […]; RPL13A-F, […] and RPL13A-R, […].

IL8 mRNA expression = assay: QPCR of TNFα-induced IL8 mRNA in 293 cells and CDK8/19 knockout derivatives; assay type: cell-based, human; settings: dKO 293 cells; 1 μM senexin B
Protocol: as §3

[4] = Homo sapiens, HEK293, 3 h, 293-WT-NFKB-LUC#8, 10 ng/mL TNFα 3 h, read-out: NFkB activity Assay IC50
[5] = HEK293, 293-dKO-NFKB-LUC#2, 10 ng/mL TNFα 3 h
[6] = 293-WT-NFKB-LUC#8, 10 ng/mL TNFα 3 h, read-out: NFkB activity Assay IC50

Compound | IC50 [1, 4] | ALP activity Assay EC200 [2] | extent of inhibition of NFκB-dependent promoter activation ([1]; 10 ng/mL TNFα 3 h) | IC50 [3, 5] | extent of inhibition of NFκB-dependent promoter activation ([3]; dKO cells, 10 ng/mL TNFα 3 h) | other results
CNC(=O)c1ccc(N2CCCN(c3ccnc4sc(C(N)=O)c(N)c34)CC2)cc1 [15v] | 23.1 nM | 54.2 nM |  |  |  | 
CN(C)C/C=C/C(=O)Nc1ccc(C(=O)Nc2cccc(Nc3ncc(Cl)c(-c4c[nH]c5ccccc45)n3)c2)cc1 [THZ1] | 220 nM |  | completely inhibited | 352 nM | completely inhibited | 
CN(C)C(=O)c1ccc(N2CCCN(c3ccnc4sc(C(N)=O)c(N)c34)CC2)cc1 [15u] | 10.3 nM | 31.9 nM |  | > 1000 nM |  | IC50 [1, 6]: 10 nM; effect on reporter induction in dKO cells ([3]; 10 ng/mL TNFα 3 h): none of them showed any activity
COc1ccc(N2CCCN(c3ccnc4sc(C(N)=O)c(N)c34)CC2)cc1 [15q] | 37.8 nM | 88.1 nM |  |  |  | 
CC(=O)c1c(C)c2cnc(Nc3ccc(N4CCNCC4)cn3)nc2n(C2CCCC2)c1=O [Palbociclib, palbociclib] | > 2000 nM |  | only weak inhibitory effects at high concentrations | > 2000 nM | only weak inhibitory effects at high concentrations | 
NC(=O)c1sc2nccc(N3CCCN(c4ccccc4)CC3)c2c1N [15k] |  |  |  |  |  | effect on reporter induction in dKO cells ([3]; 10 ng/mL TNFα 3 h): none of them showed any activity
CN1CC[C@H](c2c(O)cc(O)c3c(=O)cc(-c4ccccc4Cl)oc23)[C@H](O)C1 [Flavopiridol] | 34 nM |  | completely inhibited | 26 nM | completely inhibited | 
CN(C)C(=O)Cc1ccc(N2CCCN(c3ccnc4sc(C(N)=O)c(N)c34)CC2)cc1 [15w] | 4.1 nM | 6.6 nM |  | > 1000 nM |  | IC50 [1, 6]: 4 nM; effect on reporter induction in dKO cells ([3]; 10 ng/mL TNFα 3 h): none of them showed any activity
Cc1ccc(N2CCCN(c3ccnc4sc(C(N)=O)c(N)c34)CC2)cc1 [15n] | 43.1 nM | 115.4 nM |  |  |  | 
CN(C)C1CC23CCC4(O2)C(=CCC2(C)C(c5ccc6ccncc6c5)=CCC24)C=C3C(O)C1O (centres unmarked) [dCA, didehydro-cortistatin A] |  |  |  |  |  | IC50 ([1]; Homo sapiens, HEK293, 3 h, read-out: NFkB activity Assay IC50): 1.3 nM; maximal (plateau) inhibition of TNFα-induced reporter induction ([1]; WT reporter cells, 10 ng/mL TNFα 3 h): ~ 80%; effect on reporter induction in dKO cells ([3]; 10 ng/mL TNFα 3 h): no effect; IC50 ([3]; HEK293, 3 h): > 1000 nM
CN1CCN(C(=O)c2ccc3cc(CCNc4ncnc5ccc(C#N)cc45)ccc3c2)CC1 [senexin B] | 114 nM |  |  | > 1000 nM |  | inhibitory effect on TNFα induction of CXCL1 (CXCL1 mRNA expression): completely abolished; inhibitory effect on TNFα induction of IL8 (IL8 mRNA expression): completely abolished; IC50 ([1]; Homo sapiens, HEK293, 3 h, clone WT-#1, 10 ng/mL TNFα 3 h, read-out: IC50 for inhibition of TNFα-induced luciferase expression): 95 nM; IC50 ([1]; Homo sapiens, HEK293, 3 h, clone WT-#2, 10 ng/mL TNFα 3 h, read-out: IC50 for inhibition of TNFα-induced luciferase expression): 135 nM; IC50 ([1]; Homo sapiens, HEK293, 3 h, clone WT-#9, 10 ng/mL TNFα 3 h, read-out: IC50 for inhibition of TNFα-induced luciferase expression): 187 nM; inhibition of TNFα-induced luciferase expression ([1]; all the WT clones, 1 μM senexin B): 70–80%; inhibition of TNFα-induced luciferase induction ([3]; dKO cells, 1 μM senexin B, 10 ng/mL TNFα): not in dKO cells
CCc1cnn2c(NCc3ccc[n+]([O-])c3)cc(N3CCCC[C@H]3CCO)nc12 [Dinaciclib] |  |  | completely inhibited |  | completely inhibited | 
CC(C)C[C@H](NC(=O)[C@H](Cc1ccccc1)NC(=O)c1cnccn1)B(O)O [Bortezomib, bortezomib] | 311 nM |  |  | 173 nM |  | 
Cc1ccc(S(=O)(=O)N[C@@H](Cc2ccccc2)C(=O)CCl)cc1 [TPCK, tosyl-L-phenylalanyl-chloromethane ketone] | 13000 nM |  | complete suppression | 12000 nM | complete suppression | 
